According to US6586617B1, “Sulfonamide derivatives” (Sumitomo Chemical Takeda Agro Company, Limited, priority 1999, dated 2003):
Like-named read-outs stand apart in the source and are kept apart here.

Assays:
[1] = system: apple Alternaria leaf blotch (Alternaria mali); test: Test Example 5: apple Alternaria leaf blotch, single and combined fungicides (Table 2); assay type: in vivo; conditions: for Lesion area ratio (%) / Protection value: apple seedlings; for protection effect in combination compared with estimated protection effect (synergy): in combination with chlorothalonil, hexaconazole and azoxystrobin
[2] = system: rice blast (Pyricularia oryzae); assay type: in vivo; conditions: for Lesion area ratio (%) / Protection value: rice plants
[3] = system: cucumber gray mold (Botrytis cinerea); test: Test Example 9: cucumber gray mold, single and combined fungicides (Table 6); conditions: for Lesion area ratio (%) / Protection value: young cucumber (Yotsuba)
Method: (§1) The protection value was calculated by means of the equation as follows. protection value=(1−(lesion area in the division treated with fungicide)/lesion area in the division not treated with fungicide))×100
(§2) An estimated protection value of a mixture of active ingredients was calculated according to the Colby's formula [R. S. Colby, Weeds 15, 20-22 (1967)] and compared with the experimental protection value.
[wherein, E is the estimated protection value (additive effect) which will be obtained when the active ingredients A and B are used in a mixture in concentrations a and b, respectively x is the protection value obtained when the active igredient A is used in a concentration a, and y is the protection value obtained when the active ingredient B is used in a concentration b. […] A protection value equal 0 means that the lesion area ratio of the plants in the test group is as large as that of the plants in the untreated control group. A protection value equals 100 means that the plants in the test group are free from the disease.
The test compound (denoted by the compound No. in Table 1 above), azoxystrobin, mepanipyrim and iprodione, individually or in combination, were dissolved in dimethylformamide (final concentration was 1 wt %). Xylene (final concentration was 0.02 wt %) and Tween 20 (Trade Name) (final concentration was 0.02 wt %) were added to the solution. The resulting mixture was diluted with water to give a test solution which contained a given concentration (ppm) of the active ingredient. A spreader adjuvant SINDAIN (Trade Name, Manufactured by Takeda Chemical Industries, Ltd, and comprises 20 wt % of polyoxyethylene nonylphenyl ether and 12 wt % of calcium ligninsulfonate) was added to this solution in the final concentration of 0.05 wt % to give a spray agent.
The spray agent was sprayed in an amount of 10 ml/pot on young cucumber (cultural variety: Yotsuba) cultivated for 3 to 4 weeks in a greenhouse. After drying up in a room, the treated cucumbers were inoculated with pathogenic fangi on the leaves by placing the mycelial disks which were cut out from a PSA medium grown with Botrytis cinerea and then kept in a greenhouse at 28° C. for 3 days. Then, the ratio of the lesion area on the plants treated with the test compound and that on the plants treated with another substances to that on untreated plants was investigated.

[4] = system: apple Alternaria leaf blotch (Alternaria mali); test: Test Example 6: apple Alternaria leaf blotch, single and combined fungicides (Table 3); conditions: for Lesion area ratio (%) / Protection value: apple leaves; for protection effect in combination compared with estimated protection effect (synergy): in combination with mepanipyrim (No. 289) and iminoctadine (No. 97), respectively
Method: as §1, §2
[wherein, E is the estimated protection value (additive effect) which will be obtained when the active ingredients A and B are used in a mixture in concentrations a and b, respectively x is the protection value obtained when the active igredient A is used in a concentration a, and y is the protection value obtained when the active ingredient B is used in a concentration b.

[5] = system: rice Helminthosporium leaf spot (Cochliobolus miyabeanus); test: Test Example 8: rice Helminthosporium leaf spot, single and combined fungicides (Table 5); assay type: in vivo; conditions: for Lesion area ratio (%) / Protection value: young rice plants

CO/C=C(/C(=O)OC)c1ccccc1Oc1cc(Oc2ccccc2C#N)ncn1 [Azoxystrobin, azoxystrobin, reference compound]
Lesion area ratio (%) ([1]; 6.3 ppm active ingredient): 25.8%
Protection value ([1]; 6.3 ppm active ingredient): 56
Lesion area ratio (%) ([1]; 25 ppm active ingredient): 25.0%
Protection value ([1]; 25 ppm active ingredient): 58
Lesion area ratio (%) ([2]; 0.1 ppm active ingredient): 11.0%
Protection value ([2]; 0.1 ppm active ingredient): 56
Lesion area ratio (%) ([2]; 0.5 ppm active ingredient): 5.0%
Protection value ([2]; 0.5 ppm active ingredient): 80
Lesion area ratio (%) ([3]; 10 ppm active ingredient): 3.9%
Protection value ([3]; 10 ppm active ingredient): 69.8

N#Cc1c(Cl)c(Cl)c(Cl)c(C#N)c1Cl [Chlorothalonil, chlorothalonil, reference compound]
Lesion area ratio (%) ([1]; 6.3 ppm active ingredient): 43.5%
Protection value ([1]; 6.3 ppm active ingredient): 27
Lesion area ratio (%) ([1]; 25 ppm active ingredient): 60.0%
Protection value ([1]; 25 ppm active ingredient): 0
Lesion area ratio (%) ([1]; 100 ppm active ingredient): 16.8%
Protection value ([1]; 100 ppm active ingredient): 72

Cc1ccc(S(=O)(=O)N(C)c2ccccc2[N+](=O)[O-])cc1 [Compound No. 38, N-Methyl-2′-nitro-p-toluenesulfonanilide]
melting point: 131.5 to 132.5 °C

Cc1ccc(S(=O)(=O)N(c2ccc(Cl)cc2C#N)C(C)C)cc1 [Compound No. 97, 4′-Chloro-2′-cyano-N-isopropyl-p-toluenesulfonanilide]
Lesion area ratio (%) ([4]; 0.4 ppm active ingredient): 25.0%
Protection value ([4]; 0.4 ppm active ingredient): 65
Lesion area ratio (%) ([4]; 1.6 ppm active ingredient): 19.2%
Protection value ([4]; 1.6 ppm active ingredient): 73
Lesion area ratio (%) ([4]; 6.3 ppm active ingredient): 8.0%
Protection value ([4]; 6.3 ppm active ingredient): 89
protection effect in combination compared with estimated protection effect (synergy) [4]: higher protection effect

CCN(c1ccc(SC)cc1[N+](=O)[O-])S(=O)(=O)c1ccc(C)cc1 [Compound No. 227, N-Ethyl-4′-methylthio-2′-nitro-p-toluenesulfonanilide]
melting point: 135 to 136 °C

CCN(c1ccc(Cl)cc1[N+](=O)[O-])S(=O)(=O)c1ccc(C)cc1 [Compound No. 289, 4′-Chloro-N-ethyl-2′-nitro-p-toluenesulfonanilide]
Lesion area ratio (%) ([1]; 0.4 ppm active ingredient): 36.9%
Protection value ([1]; 0.4 ppm active ingredient): 38
Lesion area ratio (%) ([1]; 1.6 ppm active ingredient): 20.8%
Protection value ([1]; 1.6 ppm active ingredient): 65
Lesion area ratio (%) ([1]; 6.3 ppm active ingredient): 3.8%
Protection value ([1]; 6.3 ppm active ingredient): 94
Lesion area ratio (%) ([1]; 25 ppm active ingredient): 4.3%
Protection value ([1]; 25 ppm active ingredient): 93
protection effect in combination compared with estimated protection effect (synergy) [1]: higher protection effect
Lesion area ratio (%) ([2]; 100 ppm active ingredient): 25.0%
Protection value ([2]; 100 ppm active ingredient): 0
Lesion area ratio (%) ([2]; 200 ppm active ingredient): 25.0%
Protection value ([2]; 200 ppm active ingredient): 0
protection effect in combination compared with estimated protection effect (synergy) ([2]; in combination with azoxystrobin): higher protection effect
Lesion area ratio (%) ([5]; 25 ppm active ingredient): 5.0%
Protection value ([5]; 25 ppm active ingredient): 71.4
Lesion area ratio (%) ([5]; 100 ppm active ingredient): 4.5%
Protection value ([5]; 100 ppm active ingredient): 74.3
protection effect in combination compared with estimated protective effect (synergy) ([5]; in combination with ferimzone): higher protection effect
Lesion area ratio (%) ([3]; 100 ppm active ingredient): 13.2%
Protection value ([3]; 100 ppm active ingredient): 0.0
protection effect in combination compared with estimated protection effect (synergy) ([3]; in combination with azoxystrobin, mepanipyrim and iprodione): higher protection effect
Lesion area ratio (%) ([4]; 0.4 ppm active ingredient): 18.3%
Protection value ([4]; 0.4 ppm active ingredient): 74
Lesion area ratio (%) ([4]; 1.6 ppm active ingredient): 13.7%
Protection value ([4]; 1.6 ppm active ingredient): 81
Lesion area ratio (%) ([4]; 6.3 ppm active ingredient): 9.3%
Protection value ([4]; 6.3 ppm active ingredient): 87
protection effect in combination compared with estimated protection effect (synergy) [4]: higher protection effect

Cc1ccc(S(=O)(=O)N(c2ccc([N+](=O)[O-])cc2C#N)C(C)C)cc1 [Compound No. 421]
Lesion area ratio (%) ([1]; 0.4 ppm active ingredient): 24.7%
Protection value ([1]; 0.4 ppm active ingredient): 58
Lesion area ratio (%) ([1]; 1.6 ppm active ingredient): 20.0%
Protection value ([1]; 1.6 ppm active ingredient): 66
Lesion area ratio (%) ([1]; 6.3 ppm active ingredient): 2.3%
Protection value ([1]; 6.3 ppm active ingredient): 96
Lesion area ratio (%) ([1]; 25 ppm active ingredient): 0.3%
Protection value ([1]; 25 ppm active ingredient): 99
protection effect in combination compared with estimated protection effect (synergy) [1]: higher protection effect

CON(c1ccc([N+](=O)[O-])cc1Cl)S(=O)(=O)c1cc(Cl)ccc1Cl [Compound No. 528, N-Methoxy-4′-nitro-2,2′,5-trichlorobenzenesulfonanilide]
melting point: 136 to 138 °C

C/C(=N/Nc1nc(C)cc(C)n1)c1ccccc1C [Ferimzone, ferimzone, reference compound]
Lesion area ratio (%) ([5]; 25 ppm active ingredient): 1.5%
Protection value ([5]; 25 ppm active ingredient): 91.4
Lesion area ratio (%) ([5]; 100 ppm active ingredient): 0.4%
Protection value ([5]; 100 ppm active ingredient): 98.0

CCCCC(O)(Cn1cncn1)c1ccc(Cl)cc1Cl (stereo not drawn) [Hexaconazole, hexaconazole, reference compound]
Lesion area ratio (%) ([1]; 0.4 ppm active ingredient): 70.0%
Protection value ([1]; 0.4 ppm active ingredient): 0
Lesion area ratio (%) ([1]; 1.6 ppm active ingredient): 66.7%
Protection value ([1]; 1.6 ppm active ingredient): 0
Lesion area ratio (%) ([1]; 6.3 ppm active ingredient): 21.7%
Protection value ([1]; 6.3 ppm active ingredient): 63

N=C(N)NCCCCCCCCNCCCCCCCCNC(=N)N [Iminoctadine, iminoctadine, reference compound]
Lesion area ratio (%) ([4]; 0.4 ppm active ingredient): 66.7%
Protection value ([4]; 0.4 ppm active ingredient): 6
Lesion area ratio (%) ([4]; 1.6 ppm active ingredient): 33.8%
Protection value ([4]; 1.6 ppm active ingredient): 52
Lesion area ratio (%) ([4]; 6.3 ppm active ingredient): 35.0%
Protection value ([4]; 6.3 ppm active ingredient): 51

CC(C)NC(=O)N1CC(=O)N(c2cc(Cl)cc(Cl)c2)C1=O [Iprodione, iprodione]
Lesion area ratio (%) ([3]; 10 ppm active ingredient): 3.7%
Protection value ([3]; 10 ppm active ingredient): 71.3

CC#Cc1cc(C)nc(Nc2ccccc2)n1 [Mepanipyrim, mepanipyrim, reference compound]
Lesion area ratio (%) ([3]; 10 ppm active ingredient): 6.0%
Protection value ([3]; 10 ppm active ingredient): 53.8
Lesion area ratio (%) ([4]; 0.4 ppm active ingredient): 68.3%
Protection value ([4]; 0.4 ppm active ingredient): 4
Lesion area ratio (%) ([4]; 1.6 ppm active ingredient): 73.3%
Protection value ([4]; 1.6 ppm active ingredient): 0
Lesion area ratio (%) ([4]; 6.3 ppm active ingredient): 19.3%
Protection value ([4]; 6.3 ppm active ingredient): 73
